In patent US11141494B2, “Development of neurokinin-1 receptor-binding agent delivery conjugates” (PURDUE RESEARCH FOUNDATION, priority 2014, dated 2021):

What was measured:
[1] = in terms of human activity and metabolism; cited from earlier work
[2] = test system: NKIR-transduced xenografts (HEK 293-NKIR) versus non-transduced xenografts (HEK 293-WT); experiment: PET imaging of 64Cu-labeled NK1R ligand conjugate in tumor xenograft mice (ROI activity, % ID/mL); type: in vivo, athymic nude mice; conditions: intravenous
Method: A NK-1 receptor-binding radionuclide delivery conjugate was prepared that contained NK1RL, a PEG2 linker, and ^64Cu-labeled chelator (radiochemical purity: 99%) with Specific Activity (SA) of 3.7 MBq/μg. Four NKIR-transduced xenografts (HEK 293-NKIR) were prepared, as well as four non-transduced xenografts (HEK 293-WT) using athymic nude mice. Doses of 140-160 uCi (˜[…]) of ligand per mouse were intravenously administered, and the models were imaged at 1, 4 and 20 hours post-injection using PET. The images were analyzed in a region of interest (ROI) around the tumor xenograft activity, and percentage injected dose per mL (% ID/mL) values were calculated from the mean activity in the ROIs. FIG. 8A is a plot showing ROI activity for the NK1R-transduced and non-transduced xenografts. […] FIG. 8B is a plot showing the ^64Cu—NK1R ligand uptake ratio between the NK1R-transduced and non-transduced xenografts in various areas at 20 hours post-injection.

SMILES | biological half-life [1] [day] | accumulation in NK1R-transduced versus non-transduced xenografts (ROI activity) ([2]; PET at 1, 4 and 20 hours post-injection, HEK 293-NKIR and HEK 293-WT xenografts) | time post-injection at which the ratio between NK1R-transduced and non-transduced xenografts was highest ([2]; PET imaged at 1, 4 and 20 hours post-injection) [h]
[99Tc] [^99mTc, technetium-99m] | 1 |  | 
O=C(O)CN1CCN(CC(=O)O)CCN(CC(=O)NCCOCCOCCNC(=O)CN2CCC[C@H](OCc3cc(C(F)(F)F)cc(C(F)(F)F)c3)[C@@H]2c2ccccc2)CC1 [NK1RL-PEG2-NOTA-^64Cu conjugate, metal not drawn] |  | specifically accumulated in NK1R-transduced xenografts, but not in non-transduced murine model xenografts | 20
